Some test systems named below: M14 melanoma; BT-549 breast; UACC-257 melanoma; UO-31 renal; NCI/ADR-RES ovarian; HCT-15 colon; KM12 colon; OVCAR-5 ovarian.
Assay in all cases: NCI tumour cell line growth inhibition, 48 h

Molecules are shown by their SMILES. “And” between values parts separate entries of the source, which are not always exact repeats. Equal values may be shown once.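 Exposure lasted 48 hours, with cells grown in 96-well plates and compounds tested at five concentrations. Abbreviation: GI50, concentration required for 50% inhibition of growth. TGI marks complete inhibition of growth.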 *1 amine or outer side, *2 acyl side, *3 side chain or, on linkers, in order; H or OH if unused. Where a SMILES comes first, the peptide text is derived from it. Bridges are numbered along the chain shown (N, C = ends). [ ]: non-standard residue; d: D form. The star is where a group is joined. Phe(3-Me) = Cc1cccc(C[C@H](N)C(=O)O)c1; NH(4-Cl-2-F-phenyl) = Fc1cc(Cl)ccc1N*; Pro(4R-Me) = C[C@H]1CN[C@H](C(=O)O)C1; Hyp = O=C(O)[C@@H]1C[C@@H](O)CN1; aThr = C[C@H](O)[C@H](N)C(=O)O; Pip = O=C(O)[C@@H]1CCCCN1; CO = O=C([*:1])[*:2] Bounds are passed on as bounds.

As to `CCOC(=O)C(Cc1c[nH]c2cc([N+](=O)[O-])ccc12)(NC(C)=O)C(=O)OCC`, the GI50 with M14 melanoma was over 931 µM; in the assay on BT-549 breast, 64.9 µM and 75 µM; with UO-31 renal, 43.4 µM and 188 µM; in the assay with NCI/ADR-RES ovarian, 92.2 µM and 331 µM; in the assay on HCT-15 colon it was over 1000 µM; with KM12 colon it was over 1000 µM. Besides, the GI50 with OVCAR-5 ovarian was over 833 µM. Besides, the TGI was over 682 µM in the assay on BT-549 breast; over 1000 µM in the assay on UACC-257 melanoma; over 1000 µM with UO-31 renal; over 1000 µM with NCI/ADR-RES ovarian; over 1000 µM with HCT-15 colon; over 1000 µM with KM12 colon. In the assay with OVCAR-5 ovarian, this compound had a TGI of over 1000 µM.
As to `O=C(c1cc(-c2cc3c(cc2C(=O)N2Cc4ccccc4C[C@H]2CN2CCOCC2)OCO3)n2c1CCCC2)N(c1ccccc1)c1ccc(O)cc1`, the GI50 in the assay on M14 melanoma was 18.1 µM; in the assay with BT-549 breast it was 36.4 µM; in the assay with UACC-257 melanoma, 18.9 µM; in the assay on UO-31 renal, 4.28 µM; in the assay on NCI/ADR-RES ovarian, 6.5 µM; in the assay on HCT-15 colon, 3.54 µM. Besides, the GI50 is 12.9 µM in the assay on KM12 colon and 5.87 µM in the assay on OVCAR-5 ovarian. The TGI in the assay with M14 melanoma, in the assay on BT-549 breast, in the assay with UACC-257 melanoma, with UO-31 renal, in the assay with NCI/ADR-RES ovarian and in the assay on HCT-15 colon was over 100 µM throughout. Moreover, the TGI with KM12 colon and in the assay with OVCAR-5 ovarian was over 100 µM each time.
On to `O=C1C(Cl)=C(N2CCOCC2)C(=O)c2ccccc21`, for which the GI50 was 5.62 µM with M14 melanoma; 10.8 µM in the assay on BT-549 breast; 1.62 µM in the assay on UACC-257 melanoma; 1.64 µM in the assay with UO-31 renal; 3.11 µM with NCI/ADR-RES ovarian; 2.11 µM in the assay on HCT-15 colon. Also, the GI50 in the assay on KM12 colon is 13.7 µM; in the assay with OVCAR-5 ovarian, 20.7 µM. The TGI with M14 melanoma worked out at 18.7 µM; with BT-549 breast it was 23.2 µM; with UACC-257 melanoma, 3.03 µM; with UO-31 renal, 3.28 µM; with NCI/ADR-RES ovarian, 13 µM; with HCT-15 colon it was 4.33 µM. Besides, the results for the TGI in the assay with KM12 colon and in the assay with OVCAR-5 ovarian were 27.6 µM and 36.4 µM, respectively.
As to `O=[N+]([O-])c1cc(Br)cc2c1[nH]c1ccc(Br)cc12`, the GI50 in the assay on M14 melanoma is 14.6 µM; in the assay on BT-549 breast, 18.7 µM; in the assay on UACC-257 melanoma it was 86 µM; in the assay on UO-31 renal, 2.08 µM; in the assay on NCI/ADR-RES ovarian, 6.09 µM; with HCT-15 colon, 28 µM. The GI50 with KM12 colon is 13.3 µM; in the assay with OVCAR-5 ovarian, 15.5 µM. Besides, the TGI is over 100 µM in the assay on M14 melanoma; 58 µM with BT-549 breast; over 100 µM in the assay on UACC-257 melanoma; 10.4 µM in the assay on UO-31 renal; 62.7 µM with NCI/ADR-RES ovarian; over 100 µM in the assay with HCT-15 colon. In addition, the TGI with KM12 colon and in the assay on OVCAR-5 ovarian was over 100 µM each time.
`O=C(O)c1ccc(NS(=O)(=O)c2cccc3cccnc23)cc1`: the GI50 in the assay with M14 melanoma, in the assay on BT-549 breast, in the assay on UACC-257 melanoma, with UO-31 renal, in the assay with NCI/ADR-RES ovarian and in the assay with HCT-15 colon was over 100 µM each time. The GI50 with KM12 colon and in the assay with OVCAR-5 ovarian was over 100 µM each time. Besides, the TGI with M14 melanoma, in the assay with BT-549 breast, with UACC-257 melanoma, with UO-31 renal, in the assay with NCI/ADR-RES ovarian and in the assay on HCT-15 colon was over 100 µM throughout. For the same compound, the TGI in the assay on KM12 colon and in the assay with OVCAR-5 ovarian was over 100 µM throughout.
In the case of `Cc1cccc(C[C@H](NC(=O)Nc2ccc(Cl)cc2F)C(=O)N[C@@H]2C(=O)N3C[C@H](O)C[C@H]3C(=O)N3CCCC[C@H]3C(=O)N[C@@H](C)C(=O)N3C[C@H](C)C[C@H]3C(=O)O[C@H]2C)c1` ({NH(4-Cl-2-F-phenyl)-CO}-[Phe(3-Me)][aThr][Hyp][Pip]A[Pro(4R-Me)]; ester 2-C), the GI50 in the assay with M14 melanoma was 0.487 µM; in the assay with BT-549 breast, 0.54 µM; in the assay on UACC-257 melanoma, 0.388 µM; in the assay on UO-31 renal it was 2.14 µM; in the assay with NCI/ADR-RES ovarian, 11 µM; with HCT-15 colon, 1.93 µM. Also, the GI50 is 0.788 µM with KM12 colon and 0.554 µM with OVCAR-5 ovarian. The TGI is 2.19 µM in the assay on M14 melanoma; 2.74 µM with BT-549 breast; 2.2 µM in the assay with UACC-257 melanoma; 7.68 µM in the assay on UO-31 renal; 33.4 µM in the assay on NCI/ADR-RES ovarian; 4.34 µM in the assay on HCT-15 colon. The TGI in the assay with KM12 colon came out at 2.49 µM; with OVCAR-5 ovarian, 2.36 µM.
With `Cc1c(CN2CCC(Nc3ncnc4sc(CC(F)(F)F)cc34)CC2)ccc2c1cc(C#N)n2Cc1cn[nH]c1`, the GI50 in the assay with M14 melanoma is 1.77 µM and 3.49 µM; in the assay with BT-549 breast, 2.72 µM and 3.16 µM; in the assay on UACC-257 melanoma, 1.37 µM and 5.31 µM; in the assay with UO-31 renal it was 2.25 µM and 2.46 µM; with NCI/ADR-RES ovarian, 4.92 µM and 7.36 µM; in the assay on HCT-15 colon, 2.62 µM and 3.24 µM. The GI50 with KM12 colon is 5.36 µM and 3.22 µM; with OVCAR-5 ovarian, 13.2 µM and > 33.4 µM. The TGI with M14 melanoma was 3.69 µM; in the assay on BT-549 breast, 17.5 µM and > 27.4 µM; with UO-31 renal it was 20.1 µM and > 41.2 µM; with NCI/ADR-RES ovarian it was 20.5 µM and > 25.8 µM; in the assay on HCT-15 colon, 10.3 µM; with KM12 colon it was 22.2 µM. Moreover, the TGI with OVCAR-5 ovarian is 34.9 µM and > 51 µM.
Take `c1ccc2[nH]c(-c3ccc(OCCCCCOc4ccc(-c5nc6ccccc6[nH]5)cc4)cc3)nc2c1`: the GI50 in the assay with M14 melanoma was 1.73 µM; in the assay with BT-549 breast, 2.33 µM; with UACC-257 melanoma, 1.65 µM; with UO-31 renal, 1.25 µM; in the assay on NCI/ADR-RES ovarian, 2.28 µM; in the assay with HCT-15 colon, 1.12 µM. For the same compound, the GI50 was 1.54 µM with KM12 colon and 2.69 µM with OVCAR-5 ovarian. Also, the TGI was determined as 4.31 µM with M14 melanoma; 5.58 µM in the assay with BT-549 breast; 3.83 µM in the assay with UACC-257 melanoma; 3.67 µM in the assay with UO-31 renal; 7.2 µM in the assay on NCI/ADR-RES ovarian; 8.11 µM with HCT-15 colon. Further, the TGI in the assay on KM12 colon stood at 4.17 µM; with OVCAR-5 ovarian, 6.75 µM.
As for `Fc1ccc(-c2nnc3sc(-c4cccc(Cl)c4)nn23)cc1Cl`, the GI50 in the assay with M14 melanoma, in the assay with BT-549 breast, with UACC-257 melanoma, in the assay on UO-31 renal, in the assay on NCI/ADR-RES ovarian and in the assay with HCT-15 colon was over 100 µM in each case. Also, the GI50 in the assay with KM12 colon and in the assay with OVCAR-5 ovarian was over 100 µM in each case. For the same compound, the TGI in the assay on M14 melanoma, with BT-549 breast, in the assay on UACC-257 melanoma, in the assay with UO-31 renal, with NCI/ADR-RES ovarian and in the assay on HCT-15 colon was over 100 µM throughout. The TGI in the assay on KM12 colon and in the assay on OVCAR-5 ovarian was over 100 µM in each case.
